Data set [1] has as its system Human platelet-rich plasma. Put plainly: Inhibition of collagen-initiated platelet aggregation (aggregometer method). To be noted: 10 min, human citrate plasma, 10 minutes at 37° C., aggregation initiated by collagen fibrils, hydrochlorides of the products tested, read-out: EC50 (maximum aggregation velocity). It is filed as cell-based. As to the method: The maximum aggregation velocity was taken as the test parameter and the effective concentration (EC50) was ascertained from dosage-activity curves. Human platelet-rich plasma was obtained by centrifugation from citrated venous blood. The experiments were carried out with suspensions of the test substances in 0.9% sodium chloride. 0.18 ml of citrate plasma was treated with a 10 μl suspension of the test compounds and the mixture was incubated at 37° C. for 10 minutes, whereupon the aggregation was initiated by the addition of 10 μl of a suspension of collagen fibrils. The following EC50 values (in μM) were ascertained for the hydrochlorides of the products of certain Examples hereinafter: […]

Data set [2] in a line: Acute toxicity (LD50) p.o. in mice. The conditions noted are these: mouse, in vivo, po, hydrochloride.

Consider five compounds from patent publication US4581172A, “Substituted pyrimido[6,1-a]isoquinolin-4-ones,pyrimido[6,1-a]benzozepin-4-ones and pyrimido[6,1-a]benzodiazepin-4-ones useful for prevention of thromboses and treating hypertension” (Hoffmann-La Roche Inc., priority 1983, dated 1986).

Turning to `COc1cc2c(cc1OC)-c1cc(=Nc3c(C)cc(C)cc3C)n(C)c(=O)n1C(C)C2` (centres unmarked) [4(a), 9,10-dimethoxy-3,6-dimethyl-2-mesitylimino-2,3,6,7-tetrahydro-4H-pyrimido[6,1-a]isoquinolin-4-one], the EC50 in data set [1] is 100 nM.

For `COc1cc2c(cc1OC)-c1cc(=Nc3c(C)cc(C)cc3C)n(C)c(=O)n1CCC2` [5(a), 10,11-dimethoxy-2-mesitylimino-3-methyl-2,3,7,8-tetrahydro-4H,6H-pyrimido[6,1-a]benzazepin-4-one], the EC50 in data set [1] was determined as 120 nM.

Regarding `COc1cc2c(cc1OC)C(C)Cn1c-2cc(=Nc2ccccc2C)n(C)c1=O` (centres unmarked) [6a) 2.], the LD50 in data set [2] was 2500 mg/kg.

`COc1cc2c(cc1OC)-c1cc(Nc3c(C)cc(C)cc3C)nc(=O)n1C(C)C2` (centres unmarked) [Example 2(a), 6,7-dihydro-9,10-dimethoxy-2-mesitylamino-6-methyl-4H-pyrimido[6,1-a]isoquinolin-4-one]: the EC50 in data set [1] is 110 nM.

Turning to `COc1cc2c(cc1OC)C(C)Cn1c-2cc(=Nc2c(C)cc(C)cc2C)n(C)c1=O` (centres unmarked) [Example 3, 9,10-dimethoxy-3,7-dimethyl-2-mesitylimino-2,3,6,7-tetrahydro-4H-pyrimido[6,1-a]isoquinolin-4-one], the EC50 in data set [1] was 600 nM.
